Measurements reported in PubChem BioAssay AID624404 (Broad Institute, 2012).
Records with an inconclusive call do not appear.

Tested on: D54 LucT luciferase reporter counterscreen, luminescence, 24 h
Test: luciferase activators in glycosylation-insensitive reporter cells, dose response, counter-screen for N-linked glycosylation inhibitor project, D54 LucT cells, luminescence, cherry pick (AID 624404)

First: CCOC(=O)c1c(NC(C)=O)sc2c(OCCN(CC)CC)c(Br)ccc12
Second: CC(=O)Nc1sc(C)c(C)c1C(=O)OCC(=O)Nc1ccccc1
The AC35 of the first is 250-fold lower: 7.67 nM for the first, 1920 nM for the second.

Going from `CN(Cc1ccccc1)c1nc2c(c(=O)[nH]c(=O)n2C)n1CCCc1ccccc1` to `CCN(CCCNC(=O)COc1cc(=O)n(CC)c2ccccc12)Cc1ccccc1`, the AC35 falls from 909 nM to 517 nM (1.8-fold).

First: CCOc1ccc(N2C(=O)Nc3ccccc3C2(O)C(=O)N2CCN(c3ccccn3)CC2)cc1 (stereo not given)
Second: CCc1ccc(N2C(=O)Nc3ccccc3C2(O)C(=O)N2CCN(c3ccccn3)CC2)cc1 (stereo not given)
The AC35 of the first is 2.4-fold higher: 1200 nM for the first, 493 nM for the second.

First: COc1cc(F)ccc1-c1csc(C(NC(C)=O)c2ccccc2)n1 (stereo not given)
Second: COc1cccc(C(N)c2nc(-c3csc4ccccc34)cs2)c1 (stereo not given)
The AC35 of the first is 20-fold lower: 243 nM for the first, 4880 nM for the second.

First: COc1cccc(/C=N/NC(=O)c2ccc(N3CCCC3=O)cc2)c1
Second: CCn1c2ccccc2c2cc(/C=N/NC(=O)c3ccc(O)cc3)ccc21
The AC35 of the first is 6.1-fold lower: 733 nM for the first, 4490 nM for the second.

First: CC(C)(C)c1ccc(OCc2ccc(C(=O)Nc3cccnc3)o2)cc1
Second: CC(C)(C)c1ccc(OCC(=O)Nc2ccncc2)c(Br)c1
The AC35 of the first is 15-fold higher: 519 nM for the first, 35.6 nM for the second.

First: COc1cc2c(cc1OC)C(=O)N1[C@H]3c4ccccc4OC[C@@H]3[C@H](c3ccccc3)[C@]1(C)C(=O)N2
Second: Cc1ccc2c(c1)C(=O)N1[C@H]3c4cc(C)ccc4OC[C@@H]3[C@H](c3ccccc3)[C@]1(C)C(=O)N2
The AC35 of the first is 2.5-fold lower: 196 nM for the first, 499 nM for the second.

Compared with `O=C(O)c1ccc(N/N=C/c2ccc(-c3ccc(Cl)cc3Cl)o2)cc1`, `OCCCN=c1cc(-c2ccccc2)oc2ccc(Cl)cc12` is 1.5-fold lower in AC35: 1470 nM for the first, 971 nM for the second.

Compared with `Cc1ccc(NCCN(C)C)c2c(=O)c3cc(O)ccc3sc12`, `CCOC(=O)N1CCC(NC(=O)c2ccc3c(c2)N=C(C)c2c(C)ccc(C)c2S3)CC1` is 6.1-fold lower in AC35: 5710 nM for the first, 940 nM for the second.

First: CC1(C)Cc2nc3sc4c(SCC(=O)NCc5ccccc5)ncnc4c3cc2CO1
Second: CCOc1cc(C)nc(NCc2ccccc2)n1
The AC35 of the first is 330-fold lower: 15.7 nM for the first, 5190 nM for the second.

`Nc1nc(Nc2ccccc2)sc1C(=O)c1ccccc1` and `COc1cc2c(cc1OC)C(c1ccccc1)N(C(=O)c1ccccc1)CC2` (stereo not given) are within 1.5-fold of each other in AC35: 272 nM for the first, 321 nM for the second.

Going from `O=C1N[C@H]2CC=C[C@H]2N(Cc2cccs2)c2ccccc21` to `O=C(Nc1ccccc1-c1ccccc1)C1CCCC1`, the AC35 rises from 199 nM to 1220 nM (6.1-fold).

Going from `COc1ccc(CNC(=O)c2cccc3c(-c4cccc(C(N)=O)c4)coc23)cc1OC` to `COc1cc(/C=C/C(=O)OCC(=O)NCc2ccc(F)cc2)ccc1O`, the AC35 falls from 408 nM to 88.1 nM (4.6-fold).

First: CC(CCc1ccco1)NC(=O)CCc1nnc2ccc(NCc3ccc(Cl)cc3)nn12 (stereo not given)
Second: COc1ccc(C2=NOC(C(=O)NCc3ccco3)C2)cc1 (stereo not given)
The AC35 of the first is 2-fold higher: 1580 nM for the first, 784 nM for the second.

Going from `Cc1nc2ncccn2c1-c1csc(Nc2ccc(N(C)C)cc2)n1` to `CCn1c2ccccc2c2cc(Nc3cc(C)nc4ncnn34)ccc21`, the AC35 rises from 28.9 nM to 420 nM (15-fold).

`COc1ccccc1/C=N/NC(=O)c1cc2c(OC)c(OC)ccc2[nH]1` and `COc1cccc(C2=CC(c3cccc(OC)c3OC)n3nnnc3N2)c1` (stereo not given) are within 1.5-fold of each other in AC35: 987 nM for the first, 765 nM for the second.

Going from `O=C(CN1CCC(O)(c2cccc(F)c2)CC1)NCCc1c[nH]c2ccccc12` to `Cn1c(SCC(=O)c2ccc(F)cc2)ncc(C(=O)Nc2ccccc2)c1=O`, the AC35 rises from 972 nM to 1690 nM (1.7-fold).

Going from `COc1cccc(C2=NOC(C(=O)NCc3ccccc3)C2)c1` (stereo not given) to `Cc1ccc(-c2cc(C(=O)NCC(c3ccccc3)N(C)C)c3ccccc3n2)o1` (stereo not given), the AC35 rises from 102 nM to 3300 nM (32-fold).

First: CC(=O)c1ccc(OCC(O)CN2CCN(CCN3C(=O)c4cccc5cccc(c45)C3=O)CC2)cc1 (stereo not given)
Second: OC1CCCN(Cc2ccc3ccc4cccc5ccc2c3c45)C1 (stereo not given)
The AC35 of the first is 5-fold higher: 4420 nM for the first, 890 nM for the second.

First: Cc1cc(=O)[nH]c2c(C)cc(S(=O)(=O)N3CCCCC3)cc12
Second: Cc1ccc(N2CC(C(=O)Nc3ccc(S(=O)(=O)N4CCOCC4)cc3)CC2=O)cc1Cl (stereo not given)
The AC35 of the first is 6.2-fold lower: 411 nM for the first, 2530 nM for the second.

First: COCCNC(=O)c1cc(-c2cccs2)on1
Second: O=C(NCCCn1ccnc1)c1cc(-c2cccs2)on1
The AC35 of the first is 2-fold lower: 1020 nM for the first, 2020 nM for the second.

Compared with `O=C(c1ccc(CS(=O)c2ccccc2Cl)o1)N1CCN(c2ccccn2)CC1` (stereo not given), `O=C(Nc1cccc(NC(=O)c2cccs2)c1)c1ccc([N+](=O)[O-])o1` is 5.4-fold lower in AC35: 5640 nM for the first, 1050 nM for the second.

Going from `CCCCCC(O)C=CC1C(O)CC(O)C1CC=CCCCC(=O)O` (stereo not given) to `Cn1c(=O)cc(OCCCC(=O)NC2CCCC2)c2ccccc21`, the AC35 rises from 3.82 nM to 3240 nM (850-fold).

Compared with `COc1ccc(C(=O)N/N=C/C23CC[C@@H](O)CC2(O)CC[C@@H]2[C@@H]3CCC3(C)C(C4=CC(=O)OC4)CCC23O)cc1` (stereo not given in full), `CCOC(=O)[C@H]1[C@H]2COc3ccc(Br)cc3[C@@H]2N2C(=O)c3cc(OC)c(OC)cc3NC(=O)[C@@]12C` is 10-fold higher in AC35: 388 nM for the first, 3990 nM for the second.

`Cc1ccc(S(=O)(=O)C(NC(=O)c2ccccc2)=C(Cl)Cl)cc1` and `CN(C)CCCN(C(=O)c1ccc(S(=O)(=O)N2CCc3ccccc3C2)cc1)c1nc2ccc(F)cc2s1` are within 1.5-fold of each other in AC35: 4390 nM for the first, 5390 nM for the second.

Compared with `C[C@H](CO)N1C[C@H](C)[C@@H](CN(C)S(=O)(=O)c2ccccc2)Oc2c(NC(=O)Cc3ccccc3)cccc2C1=O`, `CC(=O)Nc1ccc2cc3ccc(NC(C)=O)cc3nc2c1` is 2.7-fold lower in AC35: 2240 nM for the first, 838 nM for the second.

Going from `CCOc1ccc2cc(/C=C/C(=O)c3ccco3)c(Cl)nc2c1` to `Cc1cccc(Nc2nc(N)nc(-c3oc4ccccc4c3C)n2)c1`, the AC35 falls from 4140 nM to 1570 nM (2.6-fold).

With `COCCCNC(=O)Cc1c(C)c2c(cc(C)c3c(C(C)(C)C)coc32)oc1=O` the AC35 was 156 nM.
